Experimental data published in patent publication US4730068A, “Tumor retarding (1,2-diphenyl-ethylenediamine)-platinum(II)-complexes” (Asta-Werke Aktiengesellschaft, priority 1985, dated 1988).

What was measured:
[1] = tested on: DMBA-induced hormone dependent rat mammary carcinoma; test: DMBA-induced hormone dependent mammary carcinoma of the rat; assay type: in vivo; conditions: 3×6.5 mg/kg body weight/week
Protocol: Mouse leukemia P388, hormone independent human breast cancer cell line MDA-MB 231, hormone dependent human breast cancer cell line MCF7, hormone dependent mouse mammary carcinoma MXT, DMBA induced hormone dependent rat mammary carcinoma (DMBA is dimethylbenz[a]-anthracene).
For example on the mammary cancer of the rat, which was induced by 7, 12-dimethylbenz [a]-anthracene (DMBA), with the compound of Example 18 at a dosage of 3×6.5 mg/kg body weight/week there was determined with 88% of the tumors a complete remission. In the testing on the hormone independent human mammary tumor cell line MDA-MB 231 the compounds of the invention show for example in vitro in concentrations between 10^-5 and 10^-7 moles/liter a 50% inhibition of the growth of this cell line. The inhibition of [^3 H]-thymidine incorporation is of the same order of magnitude. The compounds of the invention act on the lymphocytic leukemia P388 (mouse) for example in dosages between 10 and 50 mg/kg (intraperitoneal application).

[2] = water solubility; assay type: physicochemical

Compound	tumors with complete remission [1] [%]	solubility in water [2]
NC(c1c(Cl)cc(O)cc1Cl)C(N)c1c(Cl)cc(O)cc1Cl.[Cl-].[Cl-].[Pt+2] (stereo not drawn) [Example 18, meso-1,2-bis(2,6-dichloro-4-hydroxyphenyl)-ethylenediamine-dichloro-platinum(II)]	88	
Diaquo-meso-1,2-bis(2,6-dichloro-4-hydroxyphenyl)-ethylene-diamine-platinum(II)-sulfate [Example 34]		soluble in water
